{"source": "the supplement of paper PMC10307832", "test_in_all_cases": "relative viability (nuclei count vs DMSO), 5 days (fraction); higher = more cells survive", "key": {"NCI-H1648": {"system": "NCI-H1648", "summary_of_the_method": "(§1)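 Lung cancer cell lines in 1536-well plates were dosed by pin tool the day after seeding, either with one drug alone or with a fixed anchor-drug dose plus five library-drug doses (not always all listed) in √10 steps. After 5 days, cells were fixed and their nuclei stained in one step (final 0.05% Triton X-100, 1% formaldehyde, 1 ug/ml Hoechst), then counted on 4× images. Relative viability is the nuclei count in treated wells divided by that in vehicle wells. Values are medians of duplicate plates.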"}, "NCI-H1703": {"system": "NCI-H1703", "summary_of_the_method": "as §1"}, "CAL-12T": {"system": "CAL-12T", "summary_of_the_method": "as §1"}, "NCI-H1755": {"system": "NCI-H1755", "summary_of_the_method": "as §1"}, "LK-2": {"system": "LK-2", "summary_of_the_method": "as §1"}, "A-427": {"system": "A-427", "summary_of_the_method": "as §1"}, "NCI-H1651": {"system": "NCI-H1651", "summary_of_the_method": "as §1"}}}
{"smiles": "CN1CCN(CCOc2cc(OC3CCOCC3)c3c(Nc4c(Cl)ccc5c4OCO5)ncnc3c2)CC1", "note": "[Saracatinib] + NC(=O)Nc1cc(-c2cccc(F)c2)sc1C(=O)N[C@H]1CCCNC1 [AZD7762] (partner 0.2 µM)", "values": [{"measurement": "relative viability", "setting": "NCI-H1648; first compound 0.02 µM", "value": 0.79}, {"measurement": "relative viability", "setting": "NCI-H1648; first compound 0.2 µM", "value": 0.633}, {"measurement": "relative viability", "setting": "NCI-H1648; first compound 0.6325 µM", "value": 0.865}, {"measurement": "relative viability", "setting": "NCI-H1648; first compound 2 µM", "value": 0.379}, {"measurement": "relative viability", "setting": "NCI-H1703; first compound 0.02 µM", "value": 0.136}, {"measurement": "relative viability", "setting": "NCI-H1703; first compound 0.6325 µM", "value": 0.129}, {"measurement": "relative viability", "setting": "NCI-H1703; first compound 2 µM", "value": 0.114}, {"measurement": "relative viability", "setting": "CAL-12T; first compound 0.02 µM", "value": 0.612}, {"measurement": "relative viability", "setting": "CAL-12T; first compound 0.2 µM", "value": 0.6}, {"measurement": "relative viability", "setting": "CAL-12T; first compound 0.6325 µM", "value": 0.662}, {"measurement": "relative viability", "setting": "CAL-12T; first compound 2 µM", "value": 0.699}, {"measurement": "relative viability", "setting": "NCI-H1755; first compound 0.02 µM", "value": 0.438}, {"measurement": "relative viability", "setting": "NCI-H1755; first compound 0.2 µM", "value": 0.41}, {"measurement": "relative viability", "setting": "NCI-H1755; first compound 0.6325 µM", "value": 0.465}, {"measurement": "relative viability", "setting": "NCI-H1755; first compound 2 µM", "value": 0.372}, {"measurement": "relative viability", "setting": "LK-2; first compound 0.02 µM", "value": 0.391}, {"measurement": "relative viability", "setting": "LK-2; first compound 0.2 µM", "value": 0.219}, {"measurement": "relative viability", "setting": "LK-2; first compound 0.6325 µM", "value": 0.262}, {"measurement": "relative viability", "setting": "LK-2; first compound 2 µM", "value": 0.133}, {"measurement": "relative viability", "setting": "A-427; first compound 0.02 µM", "value": 0.759}, {"measurement": "relative viability", "setting": "A-427; first compound 0.2 µM", "value": 0.636}, {"measurement": "relative viability", "setting": "A-427; first compound 0.6325 µM", "value": 0.611}, {"measurement": "relative viability", "setting": "A-427; first compound 2 µM", "value": 0.569}, {"measurement": "relative viability", "setting": "NCI-H1651; first compound 0.02 µM", "value": 0.549}, {"measurement": "relative viability", "setting": "NCI-H1651; first compound 0.2 µM", "value": 0.359}, {"measurement": "relative viability", "setting": "NCI-H1651; first compound 0.6325 µM", "value": 0.514}, {"measurement": "relative viability", "setting": "NCI-H1651; first compound 2 µM", "value": 0.436}]}
{"smiles": "CCNC(=O)c1noc(-c2cc(C(C)C)c(O)cc2O)c1-c1ccc(CN2CCOCC2)cc1", "note": "[Luminespib] + NC(=O)Nc1cc(-c2cccc(F)c2)sc1C(=O)N[C@H]1CCCNC1 [AZD7762] (partner 0.2 µM)", "values": [{"measurement": "relative viability", "setting": "NCI-H1648; first compound 0.002 µM", "value": 0.529}, {"measurement": "relative viability", "setting": "NCI-H1648; first compound 0.006325 µM", "value": 0.603}, {"measurement": "relative viability", "setting": "NCI-H1648; first compound 0.02 µM", "value": 0.875}, {"measurement": "relative viability", "setting": "NCI-H1648; first compound 0.06325 µM", "value": 0.702}, {"measurement": "relative viability", "setting": "NCI-H1648; first compound 0.2 µM", "value": 0.286}, {"measurement": "relative viability", "setting": "NCI-H1703; first compound 0.002 µM", "value": 0.146}, {"measurement": "relative viability", "setting": "NCI-H1703; first compound 0.006325 µM", "value": 0.114}, {"measurement": "relative viability", "setting": "NCI-H1703; first compound 0.02 µM", "value": 0.149}, {"measurement": "relative viability", "setting": "NCI-H1703; first compound 0.06325 µM", "value": 0.115}, {"measurement": "relative viability", "setting": "NCI-H1703; first compound 0.2 µM", "value": 0.114}, {"measurement": "relative viability", "setting": "CAL-12T; first compound 0.002 µM", "value": 0.698}, {"measurement": "relative viability", "setting": "CAL-12T; first compound 0.006325 µM", "value": 0.691}, {"measurement": "relative viability", "setting": "CAL-12T; first compound 0.02 µM", "value": 0.542}, {"measurement": "relative viability", "setting": "CAL-12T; first compound 0.06325 µM", "value": 0.188}, {"measurement": "relative viability", "setting": "CAL-12T; first compound 0.2 µM", "value": 0.182}, {"measurement": "relative viability", "setting": "NCI-H1755; first compound 0.002 µM", "value": 0.429}, {"measurement": "relative viability", "setting": "NCI-H1755; first compound 0.006325 µM", "value": 0.355}, {"measurement": "relative viability", "setting": "NCI-H1755; first compound 0.02 µM", "value": 0.352}, {"measurement": "relative viability", "setting": "NCI-H1755; first compound 0.06325 µM", "value": 0.245}, {"measurement": "relative viability", "setting": "NCI-H1755; first compound 0.2 µM", "value": 0.161}, {"measurement": "relative viability", "setting": "LK-2; first compound 0.002 µM", "value": 0.37}, {"measurement": "relative viability", "setting": "LK-2; first compound 0.006325 µM", "value": 0.481}, {"measurement": "relative viability", "setting": "LK-2; first compound 0.02 µM", "value": 0.278}, {"measurement": "relative viability", "setting": "LK-2; first compound 0.06325 µM", "value": 0.0715}, {"measurement": "relative viability", "setting": "LK-2; first compound 0.2 µM", "value": 0.0593}, {"measurement": "relative viability", "setting": "A-427; first compound 0.002 µM", "value": 0.865}, {"measurement": "relative viability", "setting": "A-427; first compound 0.006325 µM", "value": 0.722}, {"measurement": "relative viability", "setting": "A-427; first compound 0.02 µM", "value": 0.557}, {"measurement": "relative viability", "setting": "A-427; first compound 0.06325 µM", "value": 0.258}, {"measurement": "relative viability", "setting": "A-427; first compound 0.2 µM", "value": 0.205}, {"measurement": "relative viability", "setting": "NCI-H1651; first compound 0.002 µM", "value": 0.445}, {"measurement": "relative viability", "setting": "NCI-H1651; first compound 0.006325 µM", "value": 0.441}, {"measurement": "relative viability", "setting": "NCI-H1651; first compound 0.02 µM", "value": 0.277}, {"measurement": "relative viability", "setting": "NCI-H1651; first compound 0.06325 µM", "value": 0.446}, {"measurement": "relative viability", "setting": "NCI-H1651; first compound 0.2 µM", "value": 0.181}]}
